The record followed here is US20170334899A1, “AMINO-SUBSTITUTED ISOTHIAZOLES” (Bayer Pharma Aktiengesellschaft, priority 2014, published 2017).

Test [1] deals with human cervical tumor cell line HeLa (ATCC CCL-2). In words: SAC-Formation - Nocodazole-Induced Assay. Conditions: Homo sapiens, HeLa, 24 h, HeLa cells, nocodazole 0.1 μg/ml together with test compound, decrease of mitotic cells (phospho-histone H3 Ser10). It is filed as cell-based. The procedure, abridged:
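HeLa cells, plated overnight, were treated 24 h at 37 °C with nocodazole (0.1 μg/ml final) plus test compound (0.005–20 μM, 0.5% DMSO) added at the same time. After fixation, anti-phospho-histone H3 Ser10 and Hoechst staining gave the mitotic cell fraction by imaging. Values came from four-parameter Hill fits.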

The target of test [2] is T1, CDK2/CycE (Homo sapiens, UniProt P24941).
T1 construct: GST; purchased ProQinase GmbH (Freiburg, Germany); host or cells: insect cells (Sf9)
In words: CDK2/CycE kinase assay (TR-FRET). Conditions: avg, read-out: CDK2 avg (IC50 [mol/l]). The class given is biochemical. In short, it runs like this:
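GST-tagged human CDK2 and CycE from Sf9 cells, preincubated 15 min with compound, then 25 min at 22° C. with 10 μM ATP and 0.75 μM biotinylated Rb-derived peptide (final). Phospho-substrate read by TR-FRET (anti-pRB pSer807/pSer811, Eu anti-mouse IgG, streptavidin-XL665), 665/620 nm ratio, normalised to no-inhibitor and no-enzyme controls.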
A general note: Time-resolved FRET reads energy transfer from a long-lived donor to a nearby acceptor.

As for `Cc1nsc(Nc2cnc(C(F)(F)F)cn2)c1C(=O)Nc1ccc(N(C)C)c(OCCCN(C)CC(F)(F)F)c1` [Example 299, N-[4-(dimethylamino)-3-{3-[methyl(2,2,2-trifluoroethyl)amino]propoxy}phenyl]-3-methyl-5-{[5-(trifluoromethyl)pyrazin-2-yl]amino}-1,2-thiazole-4-carboxamide], the IC50 is 210 nM in test [1] and more than 20000 nM in test [2].
`Cc1nsc(Nc2cc(C#N)ccn2)c1C(=O)Nc1ccc(OC2CCN(CC(F)(F)F)CC2)nc1` [Example 25, 5-[(4-Cyanopyridin-2-yl)amino]-3-methyl-N-(6-{[1-(2,2,2-trifluoroethyl)piperidin-4-yl]oxy}pyridin-3-yl)-1,2-thiazole-4-carboxamide]: the IC50 in test [1] was 16 nM; in test [2], not below 20000 nM.
In the case of `Cc1nsc(Nc2cnc(C(F)(F)F)cn2)c1C(=O)Nc1ccc(OC2CCN(CC(F)(F)F)C2)nc1` (stereo not shown) [Example 297, 3-methyl-N-(6-{[1-(2,2,2-trifluoroethyl)pyrrolidin-3-yl]oxy}pyridin-3-yl)-5-{[5-(trifluoromethyl)pyrazin-2-yl]amino}-1,2-thiazole-4-carboxamide], the IC50 in test [1] was 80 nM; in test [2], more than 20000 nM.
In the same order, the values of `Cc1nsc(Nc2cnc(C(F)(F)F)cn2)c1C(=O)Nc1ccc(OC2CCN(CCF)C2)nc1` (stereo not shown) [Example 295, N-(6-{[1-(2-fluoroethyl)pyrrolidin-3-yl]oxy}pyridin-3-yl)-3-methyl-5-{[5-(trifluoromethyl)pyrazin-2-yl]amino}-1,2-thiazole-4-carboxamide] are 590 nM and more than 20000 nM.
As to `Cc1nsc(Nc2ccc(C#N)cn2)c1C(=O)Nc1cccc(C(=O)NC2CC2)c1` [Example 250, 5-[(5-cyanopyridin-2-yl)amino]-N-[3-(cyclopropylcarbamoyl)phenyl]-3-methyl-1,2-thiazole-4-carboxamide], the IC50 in test [1] was 790 nM; in test [2] it was more than 20000 nM.
Regarding `COC(=O)CCc1cccc(NC(=O)c2c(C)nsc2Nc2cnc3ccccc3n2)c1` [Example 257, methyl 3-[3-({[3-methyl-5-(quinoxalin-2-ylamino)-1,2-thiazol-4-yl]carbonyl}amino)phenyl]propanoate], the IC50 in test [1] is 550 nM; in test [2], more than 20000 nM.
As for `CCNC(=O)c1cccc(NC(=O)c2c(C)nsc2Nc2ccc(C#N)cn2)c1` [Example 252, 5-[(5-cyanopyridin-2-yl)amino]-N-[3-(ethylcarbamoyl)phenyl]-3-methyl-1,2-thiazole-4-carboxamide], the IC50 is 530 nM in test [1] and more than 20000 nM in test [2].
With `Cc1nsc(Nc2cnc3ccccc3n2)c1C(=O)Nc1ccc(OC2CCN(CC(F)(F)F)CC2)nc1` [Example 21, 3-Methyl-5-(quinoxalin-2-ylamino)-N-(6-{[1-(2,2,2-trifluoroethyl)piperidin-4-yl]oxy}-pyridin-3-yl)-1,2-thiazole-4-carboxamide], the values for the IC50 in test [1] and in test [2] were 61 nM and not below 20000 nM, respectively.
The corresponding values for `Cc1nsc(Nc2cnc(C(F)(F)F)cn2)c1C(=O)Nc1ccc(F)c(OCC2CCN(CCF)C2)c1` (stereo not shown) [Example 317, N-(4-fluoro-3-{[1-(2-fluoroethyl)pyrrolidin-3-yl]methoxy}phenyl)-3-methyl-5-{[5-(trifluoromethyl)pyrazin-2-yl]amino}-1,2-thiazole-4-carboxamide] are 88 nM and more than 20000 nM.
In the same order, the values of `Cc1nsc(Nc2cnc(C(F)(F)F)cn2)c1C(=O)Nc1ccc(OCCCO)nc1` [Example 279, N-[6-(3-hydroxypropoxy)pyridin-3-yl]-3-methyl-5-{[5-(trifluoromethyl)pyrazin-2-yl]amino}-1,2-thiazole-4-carboxamide] are 120 nM and more than 20000 nM.
For `Cc1nsc(Nc2cc(C#N)ccn2)c1C(=O)Nc1ccc(OC2CCN(C(=O)OC(C)(C)C)CC2)nc1` [Example 23, tert-Butyl 4-({5-[({5-[(4-cyanopyridin-2-yl)amino]-3-methyl-1,2-thiazol-4-yl}-carbonyl)amino]pyridin-2-yl}oxy)piperidine-1-carboxylate], the IC50 in test [1] was 49 nM; in test [2], not below 20000 nM.
